Here are results for 1 compound from patent US20180125795A1, “[…] COMPOSITIONS AND METHODS” (ThermoLife International, LLC, priority 2017, published 2018).

The test system of the assay is human subject. In words: Post-exercise recovery (whole-body oxygen consumption). Type of assay: in vivo. How it is done:
The administration of cinnamaldehyde promotes post-exercise recovery by reducing the time for a subject's oxygen consumption level (VO2) to return to his or her pre-exercise level when cinnamaldehyde is administered after exercise. In these implementations, cinnamaldehyde is administered with a protein and/or a carbohydrate. The protein may be any protein commonly used in nutritional supplement manufacture, which includes but is not limited to whey protein, milk protein, casein protein, beef protein, soy protein, hemp protein, rice protein, canola protein, spirulina, and pea protein. The carbohydrate may by any commonly used form of simple or complex carbohydrates used in the manufacture of dietary supplements, which includes but is not limited glucose, fructose, dextrose, palatinose, maltodextrin, various starches, activated barley, waxy maize, cereals, and oats. In a preferred embodiment, cinnamaldehyde is administered to the human subject within two hours of completion of exercise, for example within 90 minutes, 60 minutes, or 30 minutes of completion of exercise.
The effect of cinnamaldehyde on promoting post-exercise exercise is best when cinnamaldehyde is administered within an hour after exercise and its effect is reduced when administered two hours after exercise. The effect of cinnamaldehyde on promoting post-exercise exercise is enhanced when it is administered with a protein and/or a carbohydrate (for example, a combination of whey powder and glucose).

As to `O=CC=Cc1ccccc1` [cinnamaldehyde], the “time for whole-body oxygen consumption to return to pre-exercise levels” value (administered after the human subject completed an exercise session) is “reduced the time”. In addition, the “effect on promoting post-exercise recovery” value (“effect” for short) (administered two hours after exercise) is on record as “reduced”; the “effect” value (administered with a protein and/or a carbohydrate (e.g. whey powder and glucose)) is “enhanced”; the “effect” value (administered within an hour after exercise) is “best”.
